Measurements from ChEMBL document CHEMBL1143878, “The design and synthesis of novel alpha-ketoamide-based p38 MAP kinase inhibitors” (Bioorg Med Chem Lett, 2008).

Legend:
THP-1 = assay: Inhibition of LPS-induced TNFalpha production in human THP1 cells; format: functional, cell-based
[1] = biological target: T1, Mitogen-activated protein kinase 14 (Homo sapiens, UniProt Q16539); assay: Inhibition of human p38-alpha kinase phosphorylation
[2] = biological target: T1, Mitogen-activated protein kinase 14; assay: Inhibition of human p38-alpha kinase
[3] = Bioavailability in rat at 30 mg/kg, po; format: ADME, organism-based; conditions: in vivo
[4] = AUC in rat at 30 mg/kg, po; format: ADME, organism-based; design: dose 30 mg/kg, route oral; conditions: plasma
[5] = Tmax in rat at 30 mg/kg, po; format: ADME, organism-based; design: dose 30 mg/kg, route oral; conditions: in vivo
[6] = Clearance in rat at 10 mg/kg, iv; format: ADME, organism-based; design: dose 10 mg/kg, route intravenous; conditions: in vivo
[7] = Volume of distribution at steady state in rat at 10 mg/kg, iv; format: ADME, organism-based; design: dose 10 mg/kg, route intravenous; conditions: in vivo, read-out: Vdss
[8] = Half life in rat at 30 mg/kg, po; format: ADME, organism-based; design: dose 30 mg/kg, route oral; conditions: in vivo
[9] = Cmax in rat at 30 mg/kg, po; format: ADME, organism-based; design: dose 30 mg/kg, route oral; conditions: in vivo

T1 sequence (Q16539 whole entry): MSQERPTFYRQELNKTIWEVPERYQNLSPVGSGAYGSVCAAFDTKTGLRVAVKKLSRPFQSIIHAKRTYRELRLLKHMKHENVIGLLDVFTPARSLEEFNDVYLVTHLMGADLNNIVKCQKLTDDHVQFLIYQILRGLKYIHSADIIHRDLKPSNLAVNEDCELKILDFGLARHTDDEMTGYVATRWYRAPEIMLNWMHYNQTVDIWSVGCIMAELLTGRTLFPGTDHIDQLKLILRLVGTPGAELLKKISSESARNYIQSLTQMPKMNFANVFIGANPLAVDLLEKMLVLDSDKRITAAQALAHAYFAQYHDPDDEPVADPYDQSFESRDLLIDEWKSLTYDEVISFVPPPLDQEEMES

SMILES | IC50 (THP-1) [nM] | also measured
CC(C)(C)c1cc(NC(=O)C(=O)c2ccc(OCCN3CCOCC3)c3ccccc23)n(-c2cccc(F)c2)n1 | 440 | –
Cc1ccc(-n2nc(C(C)(C)C)cc2NC(=O)C(=O)c2ccc(OCCN3CCOCC3)c3ccccc23)cc1C | 450 | –
Cc1ccc(-n2nc(C(C)(C)C)cc2NC(=O)C(=O)c2ccc(OCCN3CCOCC3)c3ccccc23)cc1F | 220 | –
Cc1ccc(-n2nc(C(C)(C)C)cc2NC(=O)C(=O)c2ccc(OCCN3CCOCC3)c3ccc(Cl)cc23)cc1 | 2600 | –
Cc1cccc(-n2nc(C(C)(C)C)cc2NC(=O)C(=O)c2ccc(OCCN3CCOCC3)c3ccccc23)c1 | 340 | –
Cc1ccc(-n2nc(C(C)(C)C)cc2NC(=O)c2n[nH]c3ccccc23)cc1 | 2900 | –
Cc1ccc(-n2nc(C(C)(C)C)cc2NC(=O)C(O)c2ccc(OCCN3CCOCC3)c3ccccc23)cc1 (stereo not given) | 970 | –
CC(C)(C)c1cc(NC(=O)C(=O)c2ccc(OCCN3CCOCC3)c3ccccc23)[nH]n1 | 1500 | –
Cc1ccc(-n2nc(C(C)(C)C)cc2NC(=O)Nc2ccc(OCCN3CCOCC3)c3ccccc23)cc1 [DORAMAPIMOD] | 13 | –
C[S+]([O-])c1ccc(-c2nc(-c3ccc(F)cc3)c(-c3ccncc3)[nH]2)cc1 (stereo not given) [SB-203580] | 16 | –
Cc1ccc(-n2nc(C(C)(C)C)cc2NC(=O)C(=O)c2ccc(OCCN3CCOCC3)c3ccccc23)cc1 | 440 | IC50 [1]: 310 nM; IC50 [2]: 320 nM
CO/N=C(\C(=O)Nc1cc(C(C)(C)C)nn1-c1ccc(C)cc1)c1ccc(OCCN2CCOCC2)c2ccccc12 | 1500 | –
Cc1ccccc1-n1nc(C(C)(C)C)cc1NC(=O)C(=O)c1ccc(OCCN2CCOCC2)c2ccccc12 | 1500 | –
Cc1ccc(-n2nc(C(C)(C)C)cc2NC(=O)/C(=N\O)c2ccc(OCCN3CCOCC3)c3ccccc23)cc1 | 23 | bioavailability [3]: 100%; IC50 [1]: 150 nM; AUC [4]: 36000 ng·h/mL; Tmax [5]: 1 h; clearance [6]: 15 mL/min/kg; Vd [7]: 1.9 L/kg; half-life [8]: 1.4 h; Cmax [9]: 4500 ng/mL; IC50 [2]: 23 nM
Cc1ccc(-n2nc(C(C)(C)C)cc2NC(=O)Cc2ccc(OCCN3CCOCC3)c3ccccc23)cc1 | 1400 | –
O=c1ncn2nc(Sc3ccc(F)cc3F)ccc2c1-c1c(Cl)cccc1Cl [NEFLAMAPIMOD] | 39 | –
Cn1nc(C(C)(C)C)cc1NC(=O)C(=O)c1ccc(OCCN2CCOCC2)c2ccccc12 | – | IC50 [1]: 300 nM; IC50 [2]: 150 nM
CC(C)(C)c1cc(NC(=O)C(=O)c2ccc(OCCN3CCOCC3)c3ccccc23)n(-c2ccccc2)n1 | 2100 | –
